The values that follow come from US6166065A, “2,3-dioxabicyclo[3.3.1]nonane derivatives and antimalarial pharmaceutical compositions comprising them” (Yeda Research and Development Co., Ltd., priority 1997, dated 2000).

The structures appear in SMILES notation. Like-named read-outs stand apart in the source and are kept apart here.

Data set [1] deals with Plasmodium falciparum (NF54). In words: In vitro antimalarial activity, [3H]hypoxanthine incorporation into chloroquine-sensitive P. falciparum (NF 54). It counts as cell-based. On the procedure: the protozoan Plasmodium falciparum is a causative agent of malaria. The antimalarial activity of 2,3-dioxabicyclo[3.3.1]nonanes of type A was determined by measuring the incorporation of [^3 H]hypoxanthine, by the methods of Desjardins^9 and Milhous,^10 into […] Plasmodium falciparum (NF54)^11 in the presence of varying drug concentrations. Dose-response response curves that were fit to the experimental data by means of the Marquardt algorithm^12 were solved for the drug concentration that kills 50% of parasites (IC50), and were analyzed for accuracy of fit (R^2 value, typically ≥0.99). Provisional IC50 values were obtained in a survey of seven 5-fold dilutions (in triplicate) of stock solutions of chromatographically-purified or recrystalized test compound. Assay were later expanded to include ten concentrations (in quadruplicate) of ~1.8-fold dilutions, which flank the provisional IC50.
Tables 1-3 present tabulations of a number of compounds that have been synthesized along with the IC50 (in nM).

The conditions of data set [2]: rats, high doses; cited from earlier work.
Data set [3] deals with Plasmodium berghei (N strain). In words: In vivo antimalarial activity against chloroquine-sensitive Plasmodium berghei (N strain), four-day test in mice. Conditions: sc, P. berghei (N strain), subcutaneous, daily dose, fourday test. On the procedure: (§1) Based on the in vitro antimalarial activity of compounds of type A, the in vivo antimalarial activity of two representatives, namely of compounds 23a and 34a, were tested.
(§2) *ED50 and ED90 are given as the daily dose in mg/Kg, repeated
(§3) every 4 days. Substances were administered to mice subcutaneously and
(§4) tested by the fourday test.^14,15

Data set [4] has as its system Plasmodium yoelii (ssp. NS). The data set can be described thus: In vivo antimalarial activity against chloroquine-resistant Plasmodium yoelii (ssp. NS), four-day test in mice. Conditions: sc, P. yoelii (ssp. NS), subcutaneous, daily dose, fourday test. On the procedure: as §1, §2, §3, §4
Data set [5] has as its system mouse neuroblastoma cells. Conditions: cited from earlier work.
Data set [6] relates to Plasmodium falciparum (NF54). The following applies: recorded under the same conditions; cited from earlier work.
Data set [7] relates to Plasmodium berghei (N strain). Also on record: ED90: unit not given beside the values; ED50: unit not given here. The following applies: against P. berghei; cited from earlier work.
Data set [8] has as its system Plasmodium yoelii (ssp. NS). Also noted: ED90: unit not given beside the values; ED50: unit not given here. The following applies: against P. yoelii; cited from earlier work.
[9] abbreviates: Plasmodium falciparum, NF54, Expansion data (ten concentrations, quadruplicate, ~1.8-fold dilutions).
Setting [10] is: Plasmodium falciparum, NF54, Survey data (provisional; seven 5-fold dilutions in triplicate).

With `C[C@@]1(OC/C=C/c2ccccc2)CC[C@@H]2C[C@H]1OO[C@@]2(C)CS(=O)(=O)c1ccccc1` [Compound 36a, (1R,4R,5R,8R)-8-(trans-cinnamyloxy)-4,8-dimethyl-4-phenylsulfonylmethyl-2,3-dioxabicyclo[3.3.1]nonane], the IC50 in data set [1] (setting [9]) came out at 32 nM.

In data set [1] (setting [9]), `CCOC(=O)C(=O)O[C@]1(C)CC[C@@H]2C[C@H]1OO[C@@]2(C)CS(=O)(=O)c1ccccc1` [Compound 25a, (1R,4R,5R,8R)-8-ethoxyoxyalyloxy-4,8-dimethyl-4-phenylsulfonylmethyl-2,3-dioxabicyclo [3.3.1]nonane] gave an IC50 of 170 nM.

As for `CO[C@H]1O[C@@H]2O[C@@]3(C)CC[C@H]4[C@H](C)CC[C@@H]([C@H]1C)[C@@]24OO3` [artemether], in data set [2], the neurotoxicity entry is on record as “neurotoxicity has been seen”.

Consider `C[C@H]1CC[C@@H]2C[C@H]1OO[C@]2(C)CS(=O)(=O)c1ccccc1` [Compound 22b, (1R,4S,5R,8S)-4,8-dimethyl-4-phenylsulfonylmethyl-2,3-dioxabicyclo[3.3.1]nonane], for which it took 24 nM to reach half-maximal inhibition in data set [1] (setting [9]) (IC50).

`CCCCS(=O)(=O)C[C@@]1(C)OO[C@H]2C[C@@H]1C[C@H](OC(=O)c1ccccc1)[C@]2(C)O` [Compound 30a, (1S,4S,5S,7S,8S)-7-benzoyloxy-4-n-butylsulfonylmethyl-4,8-dimethyl-2,3-dioxabicyclo[3.3.1]nonan-8-ol]: in data set [1] (setting [10]), the IC50 came out at 300 nM.

`CC1=CC[C@@H]2C[C@H]1OO[C@@]2(C)CS(=O)(=O)c1ccccc1` [Compound 37a, (1R,4R,5R)-4,8-dimethyl-4-phenylsulfonylmethyl-2,3-dioxabicyclo[3.3.1]non-7-ene] yielded an IC50 in data set [1] (setting [10]) of 490 nM.

Compound `C[C@@]1(OC(=O)Oc2ccccc2)CC[C@@H]2C[C@H]1OO[C@@]2(C)CS(=O)(=O)c1ccccc1` [Compound 27a, (1R,4R,5R,8R)-4,8-dimethyl-8-phenoxycarbonyloxy-4-phenylsulfonylmethyl-2,3-dioxabicyclo[3.3.1]nonane] had an IC50 in data set [1] (setting [9]) of 47 nM.

Regarding `C[C@@]12O[C@@H]1C[C@@H]1C[C@H]2OO[C@@]1(C)CS(=O)(=O)c1ccccc1` [Compound 39a, (1R,4R,5R,7R,8R)-7,8-epoxy-4,8-dimethyl-4-phenylsulfonylmethyl-2,3-dioxabicyclo[3.3.1]nonane], half-maximal inhibition in data set [1] (setting [9]) (IC50) required 92 nM.

Regarding `C[C@]1(CS(=O)(=O)c2ccccc2)OO[C@@H]2C[C@H]1CC[C@@]2(C)OC(=O)C(=O)N(Cc1ccccc1)Cc1ccccc1` [Compound 26b, (1R,4S,5R,8R)-dibenzylaminooxalyloxy-4,8-dimethyl-4-phenylsulfonylmethyl-2,3-dioxabicyclo[3.3.1]nonane], the IC50 in data set [1] (setting [9]) was 81 nM.

In turn, `COc1ccc(CO[C@]2(C)CC[C@@H]3C[C@H]2OO[C@@]3(C)CS(=O)(=O)c2ccccc2)cc1` [Compound 34a, (1R,4R,5R,8R)-4,8-dimethyl-8-(p-methoxybenzyloxy)-4-phenylsulfonylmethyl-2,3-dioxabicyclo[3.3.1]nonane] returned a half-inhibitory concentration (IC50) in data set [1] (setting [9]) of 14 nM. Besides, in data set [3], the ED50 turned out to be 1.3 mg/kg and the ED90 was determined as 2.3 mg/kg/day. In addition, in data set [4], the ED50 turned out to be 4.8 mg/kg and the ED90 is 8.3 mg/kg/day.

In data set [1] (setting [9]), `C[C@]1(CS(=O)(=O)c2ccccc2)OO[C@@H]2C[C@H]1CC[C@@]2(C)O` [Compound 21b, (1R,4S,5R,8R)-4,8-dimethyl-4-phenylsulfonylmethyl-2,3-dioxabicyclo[3.3.1]nonan-8-ol] returned an IC50 of 89 nM.

`C[C@@]1(O)CC[C@@H]2C[C@H]1OO[C@@]2(C)CS(=O)(=O)c1ccccc1` [Compound 21a, (1R,4R,5R,8R)-4,8-dimethyl-4-phenylsulfonylmethyl-2,3-dioxabicyclo [3.3.1]nonan-8-ol] came in with an IC50 in data set [1] (setting [9]) of 55 nM.

For `C[C@@]1(O)[C@@H]2C[C@H](C[C@@H]1OC(=O)c1ccccc1)[C@@](C)(CS(=O)(=O)c1ccccc1)OO2` [Compound 29a, (1S,4S,5S,7S,8S)-7-benzoyloxy-4,8-dimethyl-4-phenylsulfonylmethyl-2,3-dioxabicyclo[3.3.1]nonan-8-ol], the midpoint of inhibition in data set [1] (setting [10]), the IC50, lay at 250 nM.

With `C[C@@H]1CC[C@H]2[C@@H](C)C(O)O[C@@H]3O[C@@]4(C)CC[C@@H]1[C@]32OO4` (stereo partly shown) [dihydroarte-mesinin], the neurotoxicity result in data set [5] is reported as “neurotoxicity has been seen”.

Take `CC(=O)O[C@]1(C)CC[C@@H]2C[C@H]1OO[C@@]2(C)C[S+]([O-])c1ccccc1` (stereo partly drawn) [Compound 41a, (1R,4R,5R,8R)-8-acetoxy-4,8-dimethyl-4-phenylsulfinylmethyl-2,3-dioxabicyclo[3.3.1]nonanes]: the IC50 in data set [1] (Expansion data (ten concentrations, quadruplicate, ~1.8-fold dilutions)) amounted to 40 nM; in data set [1] (Expansion data (ten concentrations, quadruplicate, ~1.8-fold dilutions), listed as 41a'), 14 nM.

As to `C[C@H]1CC[C@@H]2C[C@H]1OO[C@@]2(C)CS(=O)(=O)c1ccccc1` [Compound 22a, (1R,4R,5R,8S)-4,8-dimethyl-4-phenylsulfonylmethyl-2,3-dioxabicyclo [3.3.1]nonane], the midpoint of inhibition in data set [1] (setting [9]), the IC50, lay at 17 nM.

For `C[C@@H]1CC[C@H]2[C@@H](C)C(=O)O[C@@H]3O[C@@]4(C)CC[C@@H]1[C@]32OO4` [artemisinin], the IC50 in data set [6] is 11 nM. For the same compound, in data set [7], the ED50 is given as 0.95 and the ED90 is recorded as 2.5. Moreover, in data set [8], the ED50 is 5.8 and the ED90 was 10.0.

As for `C[C@]1(CS(=O)(=O)c2ccccc2)OO[C@@H]2C[C@H]1CC[C@@]2(C)OC(=O)Oc1ccccc1` [Compound 27b, (1R,4S, 5R,8R)-4,8-dimethyl-8-phenoxycarbonyloxy-4-phenylsulfonylmethyl-2,3-dioxabicyclo[3.3.1]nonane], the midpoint of inhibition in data set [1] (setting [9]), the IC50, lay at 150 nM.

Turning to `C[C@]1(CSc2ccccc2)OOC2C[C@@H]1C[C@H](OC(=O)c1ccccc1)[C@]2(C)O` (stereo in doubt) [Compound 4a, (1R,4S,5S,7S,8S)-7-benzoyloxy-4,8-dimethyl-4-phenylthiomethyl-2,3-dioxabicyclo[3.3.1]nonan-8-ol], in data set [1] (setting [10]), the IC50 stood at 110 nM.

In data set [1] (setting [9]), `CCOC(=O)C(=O)O[C@]1(C)CC[C@@H]2C[C@H]1OO[C@]2(C)CS(=O)(=O)c1ccccc1` [Compound 25b, (1R,4S,5R,8R)-8-ethoxyoxalyloxy-4,8-dimethyl-4-phenylsulfonylmethyl-2,3-dioxabicyclo [3.3.1]nonane] returned an IC50 of 140 nM.

For `CC(=O)CC(=O)O[C@]1(C)CC[C@@H]2C[C@H]1OO[C@@]2(C)CS(=O)(=O)c1ccccc1` [Compound 24a, (1R,4R,5R,8R)-8-acetylacetoxy-4,8-dimethyl-4-phenylsulfonylmethyl-2,3-dioxabicyclo[3.3.1]nonane], the IC50 in data set [1] (setting [9]) was determined as 46 nM.

In the case of `C[C@@]1(OC(=O)C(=O)N(Cc2ccccc2)Cc2ccccc2)CC[C@@H]2C[C@H]1OO[C@@]2(C)CS(=O)(=O)c1ccccc1` [Compound 26a, (1R,4R,5R,8R)-8-dibenzylaminooxalyloxy-4,8-dimethyl-4-phenylsulfonylmethyl-2,3-dioxabicyclo[3.3.1]nonane], the half-maximal inhibitory concentration (IC50) in data set [1] (setting [9]) was 21 nM.

As for `CC(=O)O[C@]1(C)CC[C@@H]2C[C@H]1OO[C@]2(C)C[S+]([O-])c1ccccc1` (stereo partly drawn) [Compound 41b, (1R,4S,5R,8R)-8-acetoxy-4,8-dimethyl-4-phenylsulfinylmethyl-2,3-dioxabicyclo[3.3.1]nonanes], in data set [1] (setting [9]), half-maximal inhibition (IC50) was put at 71 nM.

With `CC(=O)CC(=O)O[C@]1(C)CC[C@@H]2C[C@H]1OO[C@]2(C)CS(=O)(=O)c1ccccc1` [Compound 24b, (1R,4S,5R,8R)-8-acetylacetoxy-4,8-dimethyl-4-phenylsulfonylmethyl-2,3-dioxabicyclo [3.3.1]nonane], 73 nM corresponded to half-maximal inhibition in data set [1] (setting [9]) (IC50).

In turn, `CC(C)=CCO[C@]1(C)CC[C@@H]2C[C@H]1OO[C@@]2(C)CS(=O)(=O)c1ccccc1` [Compound 35a, (1R,4R,5R,8R)-4,8-dimethyl-8-(γ,γ-dimethylallyloxy)-4-phenylsulfonylmethyl-2,3dioxabicyclo[3.3.1]nonane] displayed an IC50 in data set [1] (setting [9]) of 35 nM.

In data set [1] (setting [9]), `CC(=O)O[C@]1(C)CC[C@@H]2C[C@H]1OO[C@@]2(C)CS(=O)(=O)c1ccccc1` [Compound 23a, (1R,4R,5R,8R)-8-acetoxy-4,8-dimethyl-4-phenylsulfonylmethyl-2,3-dioxabicyclo [3.3.1]nonane] showed an IC50 of 17 nM. For the same compound, the values for the ED50 in data set [3] and in data set [4] were 3.7 mg/kg and 12.5 mg/kg, respectively. Further, the ED90 in data set [3] stood at 7.3 mg/kg/day; in data set [4], 28 mg/kg/day.

`CC(=O)O[C@]1(C)CC[C@@H]2C[C@H]1OO[C@]2(C)CS(=O)(=O)c1ccccc1` [Compound 23b, (1R,4S,5R,8R)-8-acetoxy-4,8-dimethyl-4-phenylsulfonylmethyl-2,3-dioxabicyclo[3.3.1]nonane]: in data set [1] (setting [9]), the 50% inhibitory concentration (IC50) was determined as 17 nM.

The term IC50 denotes the point on the concentration scale where inhibition reaches its midpoint.
